Source: US20250115598A1 (Anaxis Pharma Pty Ltd, priority 2021, published 2025)

Columns and labels:
[1] = biological target: human MLKL (full length) (Homo sapiens (Human), UniProt Q8NB16); experiment: KINOMEscan binding assay, human MLKL (full length); details: KINOMEscan, Table 21; read-out: Human MLKL (full-length) (KD)
Outline: (§1)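 Compound dilutions (11 points, 3-fold, mostly from 30,000 nM, 1% DMSO final) competed with immobilized ligand for DNA- or phage-tagged protein, and bead-bound protein was measured by qPCR. Kd values came from Hill-equation fits with slope −1 (Levenberg-Marquardt).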

[2] = biological target: human RIPK1 (Homo sapiens (Human), UniProt Q13546); experiment: KINOMEscan binding assay, human RIPK1; details: Table 21
Sequence of human RIPK1 (Q13546 whole entry): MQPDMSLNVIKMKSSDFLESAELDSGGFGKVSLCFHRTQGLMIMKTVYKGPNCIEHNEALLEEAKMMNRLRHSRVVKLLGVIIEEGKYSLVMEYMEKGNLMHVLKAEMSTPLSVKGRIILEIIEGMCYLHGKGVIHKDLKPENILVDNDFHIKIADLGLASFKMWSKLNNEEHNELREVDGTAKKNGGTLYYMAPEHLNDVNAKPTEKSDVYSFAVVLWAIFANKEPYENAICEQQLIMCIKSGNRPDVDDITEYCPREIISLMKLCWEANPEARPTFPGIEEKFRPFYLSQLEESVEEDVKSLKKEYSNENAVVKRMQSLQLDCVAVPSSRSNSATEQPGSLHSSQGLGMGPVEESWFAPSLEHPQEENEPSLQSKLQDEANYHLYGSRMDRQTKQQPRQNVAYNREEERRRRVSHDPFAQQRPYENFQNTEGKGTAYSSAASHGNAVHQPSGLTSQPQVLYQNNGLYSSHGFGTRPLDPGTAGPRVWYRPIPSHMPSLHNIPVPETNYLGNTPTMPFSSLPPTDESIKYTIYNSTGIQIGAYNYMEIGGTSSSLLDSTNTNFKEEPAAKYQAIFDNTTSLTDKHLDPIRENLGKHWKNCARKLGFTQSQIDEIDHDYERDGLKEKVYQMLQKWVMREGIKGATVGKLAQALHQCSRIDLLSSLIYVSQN
Outline: as §1

[3] = biological target: human RIPK3 (Homo sapiens (Human), UniProt Q9Y572); experiment: KINOMEscan binding assay, human RIPK3; details: Table 21
Sequence of human RIPK3 (Q9Y572 whole entry): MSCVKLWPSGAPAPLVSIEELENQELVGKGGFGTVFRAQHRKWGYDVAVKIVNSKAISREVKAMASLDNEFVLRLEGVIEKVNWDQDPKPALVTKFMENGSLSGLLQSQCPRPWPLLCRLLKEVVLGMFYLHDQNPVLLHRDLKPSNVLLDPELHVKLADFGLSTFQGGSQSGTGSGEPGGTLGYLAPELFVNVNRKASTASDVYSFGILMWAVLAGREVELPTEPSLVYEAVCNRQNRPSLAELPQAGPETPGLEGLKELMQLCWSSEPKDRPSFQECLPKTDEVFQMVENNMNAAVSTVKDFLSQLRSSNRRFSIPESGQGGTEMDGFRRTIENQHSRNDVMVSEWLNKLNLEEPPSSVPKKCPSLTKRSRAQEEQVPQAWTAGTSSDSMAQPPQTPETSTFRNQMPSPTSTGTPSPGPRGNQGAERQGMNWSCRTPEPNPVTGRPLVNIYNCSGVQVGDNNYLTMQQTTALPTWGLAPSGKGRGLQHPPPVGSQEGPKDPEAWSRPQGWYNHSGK
Outline: as §1

Sequence of human MLKL (full length) (Q8NB16 whole entry): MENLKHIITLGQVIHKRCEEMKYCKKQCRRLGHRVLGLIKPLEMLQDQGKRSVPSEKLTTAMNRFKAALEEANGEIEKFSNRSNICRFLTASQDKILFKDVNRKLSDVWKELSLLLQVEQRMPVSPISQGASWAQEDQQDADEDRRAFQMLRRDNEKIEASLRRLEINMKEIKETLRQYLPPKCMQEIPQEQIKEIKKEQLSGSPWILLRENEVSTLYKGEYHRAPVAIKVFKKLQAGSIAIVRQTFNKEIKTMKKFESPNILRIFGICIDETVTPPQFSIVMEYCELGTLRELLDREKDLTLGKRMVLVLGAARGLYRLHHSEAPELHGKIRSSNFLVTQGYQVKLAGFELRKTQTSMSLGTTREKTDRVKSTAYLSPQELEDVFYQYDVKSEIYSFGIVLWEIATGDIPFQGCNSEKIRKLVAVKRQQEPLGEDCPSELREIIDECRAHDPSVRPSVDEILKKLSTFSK

Row | Kd [1] | Kd [2] | Kd [3] | SMILES
1 | < 0.001 µM | > 10 µM | > 10 µM | C[C@H](Oc1cc(-c2nn(C)c3c(-c4ccc5[nH]c(=O)n(C)c5c4)cnc(N)c23)ccc1NS(=O)(=O)C(F)F)c1ccc(F)cc1 [Compound 160, (S)-N-(4-(4-amino-1-methyl-7-(3-methyl-2-oxo-2,3-dihydro-1H-benzo[d]imidazol-5-yl)-1H-pyrazolo[4,3-c]pyridin-3-yl)-2-(1-(4-fluorophenyl)ethoxy)phenyl)-1,1-difluoromethanesulfonamide]
2 | < 0.001 µM | > 10 µM | > 10 µM | C[C@H](Oc1cc(-c2nn(C)c3c(-c4ccc5c(c4)n(C)c(=O)n5C)cnc(N)c23)ccc1NS(=O)(=O)C(F)F)c1ccc(F)cc1 [Compound 161, (S)-N-(4-(4-amino-7-(1,3-dimethyl-2-oxo-2,3-dihydro-1H-benzo[d]imidazol-5-yl)-1-methyl-1H-pyrazolo[4,3-c]pyridin-3-yl)-2-(1-(4-fluorophenyl)ethoxy)phenyl)-1,1-difluoromethanesulfonamide]
3 | < 0.001 µM | > 10 µM | > 10 µM | C[C@H](Oc1cc(-c2nn(C)c3c(-c4cnn(C5CC(C)(C)N(C)C(C)(C)C5)c4)cnc(N)c23)ccc1NS(=O)(=O)C(F)F)c1ccc(F)cc1 [Compound 162, (S)-N-(4-(4-amino-1-methyl-7-(1-(1,2,2,6,6-pentamethylpiperidin-4-yl)-1H-pyrazol-4-yl)-1H-pyrazolo[4,3-c]pyridin-3-yl)-2-(1-(4-fluorophenyl)ethoxy)phenyl)-1,1-difluoromethanesulfonamide]
4 | < 0.001 µM | > 10 µM | > 10 µM | C[C@H](Oc1cc(-c2nn(C)c3c(-c4cnn(C5C[C@H]6CNC[C@H]6C5)c4)cnc(N)c23)ccc1NS(=O)(=O)C(F)F)c1ccc(F)cc1 (stereo partly drawn) [Compound 163, N-(4-(4-amino-1-methyl-7-(1-((3aR,6aS)-octahydrocyclo-penta[c]pyrrol-5-yl)-1H-pyrazol-4-yl)-1H-pyrazolo[4,3-c]pyridin-3-yl)-2-((S)-1-(4-fluoropohenyl)eth-oxy)phenyl)-1,1-difluoromethane-sulfonamide]
5 | < 0.001 µM | > 10 µM | > 10 µM | C[C@H](Oc1cc(-c2nn(C)c3c(-c4cnn(C5C[C@@H]6CN(C)C[C@@H]6C5)c4)cnc(N)c23)ccc1NS(=O)(=O)C(F)F)c1ccc(F)cc1 (stereo partly drawn) [Compound 164, N-(4-(4-amino-1-methyl-7-(1-((3aR,6aS)-2-methyloctahydrocyclo-penta[c]pyrrol-5-yl)-1H-pyrazol-4-yl)-1H-pyrazolo[4,3-c]pyridin-3-yl)-2-((S)-1-(4-fluorophenyl)eth-oxy)phenyl)-1,1-difluoromethane-sulfonamide]

Second part, the compound before the results:

Row | SMILES | Kd [1] | Kd [2] | Kd [3]
6 | Cn1nc(-c2ccc(NS(=O)(=O)C(F)F)c(OCc3cccc(Cl)c3)c2)c2c(N)ncc(-c3cnn(C4CCOCC4)c3)c21 [Compound 130, N-(4-(4-amino-1-methyl-7-(1-(tetrahydro-2H-pyran-4-yl)-1H-pyrazol-4-yl)-1H-pyrazolo[4,3-c]pyridin-3-yl)-2-((3-chlorobenzyl)oxy)phenyl)-1,1-difluoromethane-sulfonamide] | < 0.001 µM | > 10 µM | > 10 µM
7 | Cn1nc(-c2ccc(NS(=O)(=O)C(F)F)c(OCc3ccc(Cl)c(F)c3)c2)c2c(N)ncc(-c3cnn(C4CCOCC4)c3)c21 [Compound 132, N-(4-(4-amino-1-methyl-7-(1-(tetrahydro-2H-pyran-4-yl)-1H-pyrazol-4-yl)-1H-pyrazolo[4,3-c]pyridin-3-yl)-2-((4-chloro-3-fluoro-benzyl)oxy)phenyl)-1,1-difluoromethane-sulfonamide] | < 0.001 µM | > 10 µM | > 10 µM
8 | Cn1nc(-c2ccc(NS(=O)(=O)C(F)F)cc2OCc2cccc(F)c2)c2c(N)ncc(-c3cnn(C4CCOCC4)c3)c21 [Compound 135, N-(4-(4-amino-1-methyl-7-(1-(tetrahydro-2H-pyran-4-yl)-1H-pyrazol-4-yl)-1H-pyrazolo[4,3-c]pyridin-3-yl)-3-((3-fluorobenzyl)oxy)phenyl)-1,1-difluoro-methanesulfonamide] | < 0.001 µM | > 10 µM | > 10 µM
9 | CC(n1cc(-c2cnc(N)c3c(-c4ccc(NS(=O)(=O)C(F)F)c(O[C@@H](C)c5ccc(F)cc5)c4)nn(C)c23)cn1)C(F)(F)F (stereo partly drawn) [Compound 142, N-(4-(4-amino-1-methyl-7-(1-(1,1,1-trifluoropropan-2-yl)-1H-pyrazol-4-yl)-1H-pyrazolo[4,3-c]pyridin-3-yl)-2-((S)-1-(4-fluorophenyl)ethoxy)phenyl)-1,1-difluoromethanesulfonamide] | < 0.001 µM | > 10 µM | > 10 µM
10 | Cn1nc(-c2ccc(NS(=O)(=O)C(F)F)c(OCc3nccs3)c2)c2c(N)ncc(-c3cnn(C4CCOCC4)c3)c21 [Compound 143, N-(4-(4-amino-1-methyl-7-(1-(tetrahydro-2H-pyran-4-yl)-1H-pyrazol-4-yl)-1H-pyrazolo[4,3-c]pyridin-3-yl)-2-(thiazol-2-yl-methoxy)phenyl)-1,1-difluoromethane-sulfonamide] | < 0.001 µM | > 10 µM | > 10 µM
11 | CC(C)Oc1cc(-c2nn(C)c3c(-c4cnn(C5CCOCC5)c4)cnc(N)c23)ccc1NS(=O)(=O)C(F)F [Compound 144, N-(4-(4-amino-1-methyl-7-(1-(tetrahydro-2H-pyran-4-yl)-1H-pyrazol-4-yl)-1H-pyrazolo[4,3-c]pyridin-3-yl)-2-isopropoxy-phenyl)-1,1-difluoromethane-sulfonamide] | < 0.001 µM | > 10 µM | > 10 µM
12 | Cn1nc(-c2ccc(NS(=O)(=O)C(F)F)c(OCC3CCCCC3)c2)c2c(N)ncc(-c3cnn(C4CCOCC4)c3)c21 [Compound 150, N-(4-(4-amino-1-methyl-7-(1-(tetrahydro-2H-pyran-4-yl)-1H-pyrazol-4-yl)-1H-pyrazolo[4,3-c]pyridin-3-yl)-2-(cyclohexyl-methoxy)phenyl)-1,1-difluoromethane-sulfonamide] | < 0.001 µM | > 10 µM | > 10 µM
13 | Cn1nc(-c2ccc(NS(=O)(=O)C(F)F)c(OCc3ncco3)c2)c2c(N)ncc(-c3cnn(C4CCOCC4)c3)c21 [Compound 151, N-(4-(4-amino-1-methyl-7-(1-(tetrahydro-2H-pyran-4-yl)-1H-pyrazol-4-yl)-1H-pyrazolo[4,3-c]pyridin-3-yl)-2-(oxazol-2-yl-methoxy)phenyl)-1,1-difluoromethane-sulfonamide] | < 0.001 µM | > 10 µM | > 10 µM
14 | C[C@H](Oc1cc(-c2nn(C)c3c(-c4cnn(C5CCN(C)C(C)(C)C5)c4)cnc(N)c23)ccc1NS(=O)(=O)C(F)F)c1ccc(Cl)cc1 (stereo partly drawn) [Compound 159, N-(4-(4-amino-1-methyl-7-(1-(1,2,2-trimethylpiperidin-4-yl)-1H-pyrazol-4-yl)-1H-pyrazolo[4,3-c]pyridin-3-yl)-2-((S)-1-(4-chloro-phenyl)ethoxy)phenyl)-1,1-difluoro-methanesulfonamide] | < 0.001 µM | > 10 µM | > 10 µM
